From ChEMBL document CHEMBL4052713, “Bioactivity-guided isolation of chemical constituents against H2O2-induced neurotoxicity on PC12 from Cimicifuga dahurica (Turcz.) Maxim” (Bioorg Med Chem Lett, 2017) come the findings set out here.

Each structure is given as a SMILES string. Activity calls are given as the source filed them. The rule behind the calls is not given here.

This experiment has as its system PC-12. The experiment in a line: Neuroprotective activity in rat PC12 cells assessed as reduction in H2O2-induced cytotoxicity at 1 to 10 uM pre-incubated for 24 hrs followed by H2O2 exposure for 24 hrs by MTT assay. The class given is functional, cell-based. (Tetrazolium assays rely on reduction of a dye to a coloured formazan, in cell work by metabolically active cells.)
Turning to `CCOC(=O)[C@@H](OC(=O)/C=C/c1ccc(O[C@@H]2O[C@H](CO)[C@@H](O)[C@@H](O)[C@H]2O)c(OC)c1)[C@@](O)(Cc1ccc(O)cc1)C(=O)O`, the result was Active.

Turning to `CCOC(=O)[C@H](O)[C@@](O)(Cc1ccc(O)cc1)C(=O)O`, the outcome was Active.

Regarding `CCOC(=O)[C@](O)(Cc1ccc(O)cc1)[C@@H](O)C(=O)O`, the outcome was Active.
